Assay [1] deals with T1, TNKS1 (Homo sapiens, UniProt O95271).
T1 sequence (O95271 1-1327): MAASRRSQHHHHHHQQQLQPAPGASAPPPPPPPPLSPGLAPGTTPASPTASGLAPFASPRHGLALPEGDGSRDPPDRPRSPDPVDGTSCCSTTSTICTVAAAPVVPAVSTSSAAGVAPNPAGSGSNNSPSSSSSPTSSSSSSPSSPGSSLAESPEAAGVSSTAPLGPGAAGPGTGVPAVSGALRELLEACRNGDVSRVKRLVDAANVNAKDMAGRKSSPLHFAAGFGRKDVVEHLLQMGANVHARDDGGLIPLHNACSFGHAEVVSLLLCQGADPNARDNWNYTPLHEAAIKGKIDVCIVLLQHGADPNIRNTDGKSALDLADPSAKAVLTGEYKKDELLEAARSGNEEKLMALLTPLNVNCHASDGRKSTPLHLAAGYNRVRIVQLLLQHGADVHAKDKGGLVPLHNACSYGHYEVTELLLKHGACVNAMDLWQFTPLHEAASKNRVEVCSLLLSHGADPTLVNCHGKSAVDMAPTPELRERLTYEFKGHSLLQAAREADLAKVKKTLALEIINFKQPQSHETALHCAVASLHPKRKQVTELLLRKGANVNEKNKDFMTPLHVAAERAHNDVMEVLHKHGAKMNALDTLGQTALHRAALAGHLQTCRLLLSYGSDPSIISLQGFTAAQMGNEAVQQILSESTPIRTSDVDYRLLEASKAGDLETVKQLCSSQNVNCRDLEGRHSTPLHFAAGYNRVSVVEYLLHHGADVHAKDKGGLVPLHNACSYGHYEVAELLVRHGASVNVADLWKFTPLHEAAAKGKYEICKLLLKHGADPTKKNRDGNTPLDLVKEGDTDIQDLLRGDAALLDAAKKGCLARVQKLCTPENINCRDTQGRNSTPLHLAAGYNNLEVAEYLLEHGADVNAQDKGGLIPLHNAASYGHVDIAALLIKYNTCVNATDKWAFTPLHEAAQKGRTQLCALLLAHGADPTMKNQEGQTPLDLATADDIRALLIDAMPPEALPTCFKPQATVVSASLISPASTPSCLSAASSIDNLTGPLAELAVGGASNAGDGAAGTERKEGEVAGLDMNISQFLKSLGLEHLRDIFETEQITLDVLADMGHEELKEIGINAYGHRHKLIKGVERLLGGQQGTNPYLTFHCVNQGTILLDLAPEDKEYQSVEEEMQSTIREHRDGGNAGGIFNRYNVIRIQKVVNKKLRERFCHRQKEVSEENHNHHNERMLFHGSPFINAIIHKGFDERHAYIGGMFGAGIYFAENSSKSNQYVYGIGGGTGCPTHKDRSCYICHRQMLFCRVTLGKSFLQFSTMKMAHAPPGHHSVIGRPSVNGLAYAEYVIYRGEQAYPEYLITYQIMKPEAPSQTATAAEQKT
Nature of the assay: Modified TNKS1 Assay 3 (BPS kit #80573, biotin-NAD+, 96 well). It is filed as biochemical. The conditions noted are these: human TNKS1, BPS kit #80573, 96 well. The method in brief:
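Chemiluminescent assay of TNKS1-catalysed ribosylation of a protein substrate with biotin-labelled NAD+, detected via streptavidin-HRP; run per kit protocol. Inhibition lowers the signal, and IC50 is the compound concentration halving the normalised readout.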

For assay [2], the system named is wildtype Wnt signaling cascade. The experiment in a line: HEK293 TOP Assay (Super TopFlash luciferase reporter, Wnt-3a stimulated). It counts as cell-based. Conditions: HEK293 TOP reporter cell line, Wnt-3a at EC50, 16 hours incubation, compound dilution series 50 μM to 15 nM. The method in brief:
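HEK293 cells stably carrying Super TopFlash (TOP) or FOP reporter, stimulated with recombinant human Wnt-3a (2500–5 ng/ml, two-fold steps). Both lines incubated in parallel with compound from 50 μM to 15 nM (3.16-fold) in CAFTY buffer pH 7.4 with 2 mM Ca2+ and 0.01% BSA; selectivity judged TOP vs FOP.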
A general note: Reporter assays use an easily measured gene product as a stand-in for the process of interest.

As a reminder, the IC50 is the point on the concentration scale where inhibition reaches its midpoint.

Regarding `CC(C)NCCNC(=O)c1[nH]cnc1C(=O)Nc1ccc(NC(=O)c2ccc(F)cc2Cl)cc1` [Example 288, N^4-{4-[(2-chloro-4-fluorobenzoyl)amino]phenyl}-N^5-[2-(isopropylamino)ethyl]-1H-imidazole-4,5-dicarboxamide], the IC50 in assay [1] came out at 0.03 µM; in assay [2] (Homo sapiens, HEK293, 16 h), 0.99 µM.

Regarding `O=C(Nc1ccc(NC(=O)c2nc[nH]c2C(=O)NCC2CCOCC2)cc1)c1ccc(F)cc1Cl` [Example 233, N^4-{4-[(2-chloro-4-fluorobenzoyl)amino]phenyl}-N^5-(tetrahydro-2H-pyran-4-ylmethyl)-1H-imidazole-4,5-dicarboxamide], the half-maximal inhibitory concentration (IC50) in assay [1] came to 0.48 µM; in assay [2] (Homo sapiens, HEK293, 16 h) it was 0.45 µM.

With `O=C(Nc1ccc(NC(=O)c2nc[nH]c2C(=O)NCC2CC2)cc1)c1ccc(F)cc1Cl` [Example 128, N^4-{4-[(2-chloro-4-fluorobenzoyl)amino]phenyl}-N^5-(cyclopropylmethyl)-1H-imidazole-4,5-dicarboxamide], the IC50 was greater than 0.5 µM in assay [1] and 0.26 µM in assay [2] (Homo sapiens, HEK293, 16 h).

With `CNC(=O)c1nc[nH]c1C(=O)Nc1ccc(NC(=O)c2ccc(OC)cc2Cl)cc1` [Example 246, N^5-{4-[(2-chloro-4-methoxybenzoyl)amino]phenyl}-N^4-methyl-1H-imidazole-4,5-dicarboxamide], the IC50 was greater than 0.5 µM in assay [1] and 0.2 µM in assay [2] (Homo sapiens, HEK293, 16 h).

Regarding `CN(C)CCNC(=O)c1nc[nH]c1C(=O)Nc1ccc(NC(=O)c2ccc(S(C)(=O)=O)cc2Cl)cc1` [Example 54, N^5-(4-{[2-chloro-4-(methylsulfonyl)benzoyl]amino}phenyl)-N^4-[2-(dimethylamino)ethyl]-1H-imidazole-4,5-dicarboxamide], the IC50 amounted to 0.02 µM in assay [1] and 1.45 µM in assay [2] (Homo sapiens, HEK293, 16 h).

Regarding `CCc1nc(C(=O)Nc2ccc(NC(=O)c3ccc(F)cc3Cl)cc2)c(C(=O)NCCN(C)C)[nH]1` [Example 69, N^4-{4-[(2-chloro-4-fluorobenzoyl)amino]phenyl}-N^5-[2-(dimethylamino)ethyl]-2-ethyl-1H-imidazole-4,5-dicarboxamide], the IC50 in assay [1] is 0.05 µM; in assay [2] (Homo sapiens, HEK293, 16 h), 0.19 µM.

As for `CC(CN1CCOCC1)NC(=O)c1[nH]cnc1C(=O)Nc1ccc(NC(=O)c2ccc(F)cc2Cl)cc1` (single isomer, unassigned; enantiomer 1) [Example 269, N^4-{4-[(2-chloro-4-fluorobenzoyl)amino]phenyl}-N^5-[1-(morpholin-4-yl)propan-2-yl]-1H-imidazole-4,5-dicarboxamide (enantiomer 1)], the IC50 in assay [1] is 0.08 µM; in assay [2] it was 0.44 µM.

As for `O=C(Nc1ccc(NC(=O)c2nc[nH]c2C(=O)NCCN2CCCC2)cc1)c1ccc(F)cc1Cl` [Example 228, N^4-{4-[(2-chloro-4-fluorobenzoyl)amino]phenyl}-N^5-[2-(pyrrolidin-1-yl)ethyl]-1H-imidazole-4,5-dicarboxamide], the IC50 was found to be 0.02 µM in assay [1] and 0.03 µM in assay [2] (Homo sapiens, HEK293, 16 h).

For the compound `O=C(Nc1ccc(NC(=O)c2[nH]cnc2C(=O)N2CC(F)C2)cc1)c1ccc(F)cc1Cl` [Example 41, N-{4-[(2-chloro-4-fluorobenzoyl)amino]phenyl}-4-[(3-fluoroazetidin-1-yl)carbonyl]-1H-imidazole-5-carboxamide], the IC50 was greater than 0.5 µM in assay [1] and 0.09 µM in assay [2] (Homo sapiens, HEK293, 16 h).

Regarding `CC(C)(N)CNC(=O)c1[nH]cnc1C(=O)Nc1ccc(NC(=O)c2ccc(F)cc2Cl)cc1` [Example 280, N^5-(2-amino-2-methylpropyl)-N^4-{4-[(2-chloro-4-fluorobenzoyl)amino]phenyl}-1H-imidazole-4,5-dicarboxamide], the IC50 in assay [1] turned out to be 0.06 µM; in assay [2] (Homo sapiens, HEK293, 16 h) it was 1.05 µM.

Consider `CC(C)(O)CNC(=O)c1[nH]cnc1C(=O)Nc1ccc(NC(=O)c2ccc(F)cc2Cl)cc1` [Example 223, N^4-{4-[(2-chloro-4-fluorobenzoyl)amino]phenyl}-N^5-(2-hydroxy-2-methylpropyl)-1H-imidazole-4,5-dicarboxamide], for which the IC50 in assay [1] is greater than 0.5 µM; in assay [2] (Homo sapiens, HEK293, 16 h) it was 0.33 µM.

In the case of `CC(CN1CCOCC1)NC(=O)c1[nH]cnc1C(=O)Nc1ccc(NC(=O)c2ccc(F)cc2)cc1` (single isomer, unassigned; enantiomer 1) [Example 295, N^4-{4-[(4-fluorobenzoyl)amino]phenyl}-N^5-[1-(morpholin-4-yl)propan-2-yl]-1H-imidazole-4,5-dicarboxamide (enantiomer 1)], the results for the half-maximal inhibitory concentration (IC50) in assay [1] and in assay [2] were greater than 0.5 µM and 0.69 µM, respectively.

Turning to `NC(=O)c1nc[nH]c1C(=O)Nc1ccc(NC(=O)c2ccccc2Cl)cc1` [Example 120, N^5-{4-[(2-chlorobenzoyl)amino]phenyl}-1H-imidazole-4,5-dicarboxamide], the 50% inhibitory concentration (IC50) was greater than 0.5 µM in assay [1] and 1.2 µM in assay [2] (Homo sapiens, HEK293, 16 h).

Consider `O=C(Nc1ccc(NC(=O)c2nc[nH]c2C(=O)N2CCC2)cc1)c1ccc(F)cc1Cl` [Example 142, 5-(azetidin-1-ylcarbonyl)-N-{4-[(2-chloro-4-fluorobenzoyl)amino]phenyl}-1H-imidazole-4-carboxamide], for which the IC50 in assay [1] turned out to be 0.19 µM; in assay [2] (Homo sapiens, HEK293, 16 h) it was 0.12 µM.

Take `CN1CCC(CNC(=O)c2nc[nH]c2C(=O)Nc2ccc(NC(=O)c3ccc(F)cc3Cl)cc2)C1` (stereo not drawn) [Example 407, N^5-{4-[(2-chloro-4-fluorobenzoyl)amino]phenyl}-N^4-[(1-methylpyrrolidin-3-yl)methyl]-1H-imidazole-4,5-dicarboxamide]: the IC50 in assay [1] is 0.01 µM; in assay [2] (Homo sapiens, HEK293, 16 h), 0.23 µM.

With `O=C(Nc1ccc(NC(=O)c2nc[nH]c2C(=O)NCCO)cc1)c1ccc(F)cc1Cl` [Example 132, N^4-{4-[(2-chloro-4-fluorobenzoyl)amino]phenyl}-N^5-(2-hydroxyethyl)-1H-imidazole-4,5-dicarboxamide], the IC50 was greater than 0.5 µM in assay [1] and 0.14 µM in assay [2] (Homo sapiens, HEK293, 16 h).

Consider `CC(C)(N)CNC(=O)c1ncoc1C(=O)Nc1ccc(NC(=O)c2ccc(F)cc2Cl)cc1` [Example 219, N^4-(2-amino-2-methylpropyl)-N^5-{4-[(2-chloro-4-fluorobenzoyl)amino]phenyl}-1,3-oxazole-4,5-dicarboxamide], for which the IC50 in assay [1] is greater than 0.5 µM; in assay [2] (Homo sapiens, HEK293, 16 h), 7.5 µM.

With `O=C(Nc1ccc(NC(=O)c2[nH]cnc2C(=O)N2CC(F)C2)cc1)c1cc(F)c(F)cc1Cl` [Example 47, N-{4-[(2-chloro-4,5-difluorobenzoyl)amino]phenyl}-4-[(3-fluoroazetidin-1-yl)carbonyl]-1H-imidazole-5-carboxamide], the IC50 was greater than 0.5 µM in assay [1] and 0.34 µM in assay [2] (Homo sapiens, HEK293, 16 h).

As to `O=C(Nc1ccc(NC(=O)c2nc[nH]c2C(=O)NCCN2CC[C@@H](F)C2)cc1)c1ccc(F)cc1Cl` [Example 231, N^4-{4-[(2-chloro-4-fluorobenzoyl)amino]phenyl}-N^5-{2-[(3R)-3-fluoropyrrolidin-1-yl]ethyl}-1H-imidazole-4,5-dicarboxamide], the IC50 was 0.17 µM in assay [1] and 0.07 µM in assay [2] (Homo sapiens, HEK293, 16 h).

As for `CNC(=O)c1nc[nH]c1C(=O)Nc1ccc(NC(=O)c2ccccc2Cl)c(OC)c1` [Example 99, N^5-{4-[(2-chlorobenzoyl)amino]-3-methoxyphenyl}-N^4-methyl-1H-imidazole-4,5-dicarboxamide], the IC50 is greater than 0.5 µM in assay [1] and 0.54 µM in assay [2] (Homo sapiens, HEK293, 16 h).

For the compound `CNCCNC(=O)c1[nH]cnc1C(=O)Nc1ccc(NC(=O)c2ccc(F)cc2Cl)cc1` [Example 287, N^4-{4-[(2-chloro-4-fluorobenzoyl)amino]phenyl}-N^5-[2-(methylamino)ethyl]-1H-imidazole-4,5-dicarboxamide], the half-maximal inhibitory concentration (IC50) is 0.08 µM in assay [1] and 0.75 µM in assay [2] (Homo sapiens, HEK293, 16 h).

Values taken from patent publication US9884063B2, “Amido-substituted azole compounds” (Bayer Pharma Aktiengesellschaft, priority 2014, dated 2018).
